Results reported in patent publication US20220062296A1, “COMBINATIONS OF GABAA ALPHA 5 AGONISTS AND SV2A INHIBITORS AND METHODS OF USING IN THE TREATMENT OF COGNITIVE IMPAIRMENT” (AGENEBIO, INC., priority 2020, published 2022).

Tested on: somatostatin in DG hilus
Experiment: Somatostatin immunohistochemistry, SOM-immunoreactive neurons in DG hilus
Type: in vivo, rat
Conditions: 10 mg/kg/day, four weeks, osmotic mini-pumps; AI-LEV vs AI-VEH p<0.01
Excerpt: Tissue was labeled with anti-SOM antiserum (Santa Cruz Biotechnology; cat. no. SC7819-P) using an established immunoperoxidase protocol and tissue sections were processed concurrently to minimize inter-replication variability (Haberman et al., 2009). The anti-SOM antiserum can detect somatostatin. Briefly, sections were washed in 0.1M phosphate-buffered saline (PBS) to remove cryoprotectant, and endogenous peroxidases were quenched in 0.3% H202 in PBS. After additional PBS washes, sections were blocked in 5% normal horse serum in PBS with 0.3% Triton. Sections were then incubated with primary antibody at a dilution of 1:1600 in PBS containing 0.15% Triton and 3% normal serum for 72 hours at 4° C. with agitation. […] The secondary antibody was detected with avidin-biotin complex (ABC Elite; Vector Laboratories Inc., Burlingame, Calif.) and the avidin-biotin complex was visualized with nickel-enhanced diaminobenzadine (Vector Laboratories Inc., Burlingame, Calif.). […]
Interneuron quantification was performed using a Zeiss Axioplan 2 microscope equipped with a motorized stage. […] Neuron counts were analyzed as the total number of hilar interneurons per hippocampal section for each rat.

SMILES: CC[C@@H](C(N)=O)N1CCCC1=O [levetiracetam, (2S)-2-(2-oxopyrrolidin-1-yl)butanamide]
- levels of somatostatin in DG hilus (SOM-immunoreactive hilar neurons): restores the levels of somatostatin
